{"source": "patent US6117857A", "about": "“Pharmaceutical composition” (priority 1995, dated 2000)", "key": {"[1]": {"test_system": "recurrent herpes simplex virus infections", "conditions": "cited from earlier work; for Healing time: topical treatment, recurrent cutaneous virus diseases"}, "HIV": {"test_system": "HIV", "conditions": "in vitro; cited from earlier work"}, "human herpesvirus": {"test_system": "human herpesvirus", "conditions": "in vitro; cited from earlier work"}, "[2]": {"test": "Test 5. Cytotoxicity of liposomal foscarnet (PBMC growth)", "assay_type": "cell-based", "conditions": "human PBMC, cell counter, read-out: Cytotoxicity, CIC50 (cell growth inhibitory concentration)", "procedure": "Liposomes were prepared according to Formulation 7 above and the cytotoxic effects thereof tested using human peripheral blood mononuclear cells (PBMC) as previously described (method according to Palmer, S., et al., Aids Research and Human Retroviruses, Vol.11, No. 10, 1995 with some modifications). The PBMCs were incubated with the drugs in medium for 72 h and cell growth was measured in an automatic cell counter. Above 10 000 μM the liposomes themselves interfered with the cell counting."}, "[3]": {"test_system": "reverse transcriptase of HIV", "conditions": "cited from earlier work"}, "[4]": {"conditions": "cited from earlier work"}, "[5]": {"test": "Systemic uptake of topically applied foscarnet (previous research)", "assay_type": "in vivo", "conditions": "about 100 mg of 5% foscarnet cream (about 5 mg foscarnet)"}, "[6]": {"test_system": "herpes simplex virus type 1 (strain R39)", "test": "Test 4. Antiviral effect of liposomal foscarnet on HSV-1 (HL cells, ELISA)", "assay_type": "cell-based, HSV-1; human lung fibroblast (HL) cells", "conditions": "Human alphaherpesvirus 1, 24 h, read-out: Antiviral effect on HSV-1, IC50", "procedure": "Liposomes were constructed according to Formulations 7 and 8. The liposomes were not purified from the surrounding foscarnet-containing medium and antiviral effects by the liposomes might therefore be underestimated by cell culture assays. Antiviral effects of liposomes against herpes simplex virus type 1 were tested using previously published methods (Abele, G., et al., Antiviral Chemistry & Chemotherapy (1991) 2(3), 163-169) with some modifications. Confluent human lung fibroblast (HL) cells were infected with HSV-1 (strain R39) for one hour at 37° C. The virus inoculum was removed, and various dilutions of foscarnet-loaded liposomes, empty liposomes or foscarnet in medium were added. After 24 h the cells were lysed by addition of Triton X100, subjected to a freeze-thaw cycle, and the cell lysates tested for viral replication in an HSV-1-specific ELISA. The results obtained at a virus dilution of 1:500 and an incubation time of 24 h are stated in the following Table 4."}, "[7]": {"conditions": "topical, 3% formulation; cited from earlier work"}, "Kaposi's sarcoma": {"test_system": "Kaposi's sarcoma", "conditions": "intravenous treatment; cited from earlier work"}, "[8]": {"conditions": "phospholipid liposomes; WO 89/05152; cited from earlier work"}}, "note": "Counter-ions that a name gives are not always drawn."}
{"smiles": "Nc1nc2c(ncn2CCC(CO)CO)c(=O)[nH]1", "note": "[penciclovir, 9-(4-hydroxy-3-hydroxymethylbut-1-yl)-guanine]", "values": [{"measurement": "Healing time", "setting": "[1]", "value": "only reduced by approximately one day"}]}
{"smiles": "CC(=O)OCC(CCn1cnc2cnc(N)nc21)COC(C)=O", "note": "[famciclovir]", "values": [{"measurement": "Healing time", "setting": "[1]", "value": "only reduced by approximately one day"}]}
{"smiles": "O=C(O)P(=O)(O)O", "note": "[foscarnet, trisodium salt of phosphonoformic acid, hexahydrate]", "values": [{"measurement": "Antiviral activity against replication of HIV (in words)", "setting": "HIV", "value": "shows antiviral activity against the replication of HIV in vitro"}, {"measurement": "Activity against human herpesvirus (in words)", "setting": "human herpesvirus", "value": "proven activity against all human herpesvirus in vitro"}, {"measurement": "CC50 at 72 h", "setting": "[2]", "value": 2.46, "unit": "mM"}, {"measurement": "Inhibition of reverse transcriptase of HIV (in words)", "setting": "[3]", "value": "inhibits the reverse transcriptase of HIV"}, {"measurement": "Side-effect of intravenous treatment", "setting": "[4]; intravenous, CMV retinitis and acyclovir-resistant HSV in AIDS patients", "value": "renal function impairment"}, {"measurement": "Amount entering the systemic circulation per application", "setting": "[5]", "value": "≤ 0.25", "unit": "mg per application"}, {"measurement": "Healing time of lesions", "setting": "[1]; topical, conventional cream, recurrent HSV, immunocompetent patients", "value": "shortened by approximately one day"}, {"measurement": "IC50", "setting": "[6]", "value": 0.151, "unit": "mM"}, {"measurement": "Irritation of mucous membranes or the skin", "setting": "[7]", "value": "known to cause irritation of mucous membranes or the skin"}, {"measurement": "Response of Kaposi's sarcoma patients", "setting": "Kaposi's sarcoma", "value": "some patients have responded"}, {"measurement": "Intracellular antiviral activity in liposome-encapsulated form", "setting": "[8]", "value": "several-fold higher intracellular antiviral activity"}]}
{"smiles": "Nc1nc2c(ncn2COCCO)c(=O)[nH]1", "note": "[acyclovir, 9-[(2-hydroxyethoxy)methyl]guanine]", "values": [{"measurement": "Adverse effects of therapy", "setting": "[4]; human, in vivo", "value": "very few adverse effects"}, {"measurement": "Healing time", "setting": "[1]", "value": "only reduced by approximately one day"}]}
{"smiles": "CC(C)[C@H](N)C(=O)OCCOCn1cnc2c(=O)[nH]c(N)nc21", "note": "[valaciclovir, L-valyl acyclovir]", "values": [{"measurement": "Healing time", "setting": "[1]", "value": "only reduced by approximately one day"}]}
